Results taken from PMC6627849, “Distant Non-Obvious Mutations Influence the Activity of a Hyperthermophilic Pyrococcus furiosus Phosphoglucose Isomerase” (Biomolecules, 2019).
Residue numbers refer to the chain shown, from its start. In names and notes the source's numbering stands.

B1: PfPGI mutant P132R/Y133G (cupin-type phosphoglucose isomerase of Pyrococcus furiosus) (enzyme)
chain: MYKEPFGVKVDFETGIIEGAKKSVRRLSDMEGYFVDERAWKELVEKEDPVVYEVYAVEQEEKEGDLNFATTVLYPGKVGKEFFFTKGHFHAKLDRAEVYVALKGKGGMLLQTPEGDAKWISMEPGTVVYVPRGWAHRTVNIGDEPFIFLAIYPADAGHDYGTIAEKGFSKIVIEENGEVKVVDNPRWKK
notes: cupin-type phosphoglucose isomerase (PfPGI, EC 5.3.1.9), gene pgiA, Pyrococcus furiosus; monomeric subunit 21.5 kDa; the models have no missing residues, residues up to Lys189 are named; Crystallised with MnCl2 and F6P; 5PAA found in the active site; also called RG; mutant RG; source: E. coli (pET24d), overexpressed and purified as described previously [32]
B2: PfPGI mutant P132A/Y133D (cupin-type phosphoglucose isomerase of Pyrococcus furiosus) (enzyme)
chain: B1 chain with R132A, G133D
notes: cupin-type phosphoglucose isomerase (PfPGI, EC 5.3.1.9), gene pgiA, Pyrococcus furiosus; monomeric subunit 21.5 kDa; the models have no missing residues, residues up to Lys189 are named; Structure holds only Mn2+ in the active site; also called AD; mutant AD; source: E. coli (pET24d), overexpressed and purified as described previously [32]
B3: PfPGI mutant P132A/Y133G (cupin-type phosphoglucose isomerase of Pyrococcus furiosus) (enzyme)
chain: B1 chain with R132A
notes: cupin-type phosphoglucose isomerase (PfPGI, EC 5.3.1.9), gene pgiA, Pyrococcus furiosus; monomeric subunit 21.5 kDa; the models have no missing residues, residues up to Lys189 are named; Crystallised with MnCl2 and F6P; 5PAA found in the active site; The two subunits of the dimer are related by crystal symmetry; also called AG; mutant AG; source: E. coli (pET24d), overexpressed and purified as …
B4: PfPGI mutant P132V (cupin-type phosphoglucose isomerase of Pyrococcus furiosus) (enzyme)
chain: B1 chain with R132V, G133Y
notes: cupin-type phosphoglucose isomerase (PfPGI, EC 5.3.1.9), gene pgiA, Pyrococcus furiosus; monomeric subunit 21.5 kDa; the models have no missing residues, residues up to Lys189 are named; Crystals grown with MnCl2 and soaked with F6P; also called VY; mutant VY; source: E. coli (pET24d), overexpressed and purified as described previously [32]

Tests used:
[1] = target: T1, PfPGI (cupin-type phosphoglucose isomerase) (Pyrococcus furiosus, UniProt P83194, P132R/Y133G); assay: X-ray crystal structure; assay type: binding; conditions: Mn2+ in active site; 5PAA formed from F6P in the crystallization solution; pH 5.5
T1 construct: gene pgiA; pgiA in pET24d, expressed in E. coli, heat treatment plus Q-Sepharose and Superdex 200

[2] = target: T2, PfPGI (cupin-type phosphoglucose isomerase) (Pyrococcus furiosus, UniProt P83194, P132A/Y133G); assay: EPR of Mn2+ coordination on adding F6P; assay type: binding; conditions: 10 mM F6P, 0.2 mM MnCl2, pH 8.0; spectra at 13 K
T2 construct: gene pgiA; pgiA in pET24d, expressed in E. coli, heat treatment plus Q-Sepharose and Superdex 200

[3] = target: T1, PfPGI (cupin-type phosphoglucose isomerase); assay: EPR of Mn2+ coordination on adding F6P; assay type: binding; conditions: 10 mM F6P, 0.2 mM MnCl2, pH 8.0; spectra at 13 K
[4] = target: T3, PfPGI (cupin-type phosphoglucose isomerase) (Pyrococcus furiosus, UniProt P83194, P132A/Y133D); assay: EPR of Mn2+ coordination on adding F6P; assay type: binding; conditions: 10 mM F6P, 0.2 mM MnCl2, pH 8.0; spectra at 13 K; F6P not seen in the crystal structure
T3 construct: gene pgiA; pgiA in pET24d, expressed in E. coli, heat treatment plus Q-Sepharose and Superdex 200

[5] = target: the molecule itself; assay: crystal structure; PfPGI mutants at 11.5 mg/mL in 10 mM Tris/HCl pH 8.0, 50 mM F6P, 5 mM MnCl2; molecular replacement with wild-type PfPGI (PDB 1X82); RG, AD and VY with chains A and B, AG with the two subunits related by crystal symmetry

T2 sequence (P83194 whole entry P132A/Y133G): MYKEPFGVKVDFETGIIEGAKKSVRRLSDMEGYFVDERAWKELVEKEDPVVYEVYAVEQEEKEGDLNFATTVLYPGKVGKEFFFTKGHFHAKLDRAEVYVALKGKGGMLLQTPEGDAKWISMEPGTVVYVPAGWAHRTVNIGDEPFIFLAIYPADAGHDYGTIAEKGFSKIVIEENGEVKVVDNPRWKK
T3 sequence (P83194 whole entry P132A/Y133D): as the sequence (P83194 whole entry P132A/Y133G) above, with G133D counted along it

Molecule | binding result [5] | other results
O=C(O)[C@@H](O)[C@H](O)[C@H](O)COP(=O)(O)O [5PAA, 5-phosphoarabinonic acid] |  | X-ray crystal structure [1]: 5-phosphoarabinonic acid (5PAA), rather than F6P (as added to the crystallization mixture) was bound
O=P(O)(O)OC[C@H]1OC(O)(CO)[C@@H](O)[C@@H]1O (some centres unmarked) [F6P, fructose-6-phosphate] |  | EPR of Mn2+ coordination on adding F6P [2]: addition of F6P to any of the manganese-containing PfPGI mutants lead to a collapse; EPR of Mn2+ coordination on adding F6P [3]: addition of F6P to any of the manganese-containing PfPGI mutants lead to a collapse; EPR of Mn2+ coordination on adding F6P [4]: addition of F6P to any of the manganese-containing PfPGI mutants lead to a collapse
B1 | binds | 
B2 | binds | 
B3 | binds | 
B4 | binds | 
